Test results reported in ChEMBL document CHEMBL1201862, “PubChem BioAssay data set” (2004).
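Cells were grown in 96-well plates and exposed to each compound for 48 hours at five concentrations; endpoints were interpolated linearly between bracketing concentrations, or set to the highest concentration if not reached. GI50 is the concentration that inhibits growth by half.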 Calls of active or inactive are those of the source. Cut-off read from the data, not from the text of the source: active = GI50 up to about 1.1 µM and inactive = higher.

Legend:
Assay in all cases: inhibition of tumour cell growth, NCI panel, 48 h
CAKI-1 = test system: CAKI-1
SN12C = test system: SN12C
SK-OV-3 = test system: SK-OV-3
KM12 = test system: KM12
ACHN = test system: ACHN
LOX IMVI = test system: LOX IMVI
SNB-19 = test system: SNB-19
U-251 = test system: U-251
OVCAR-4 = test system: OVCAR-4
NCI-H226 = test system: NCI-H226
SK-MEL-2 = test system: SK-MEL-2
A549 = test system: A549
SW-620 = test system: SW-620
HT-29 = test system: HT-29
HCT-116 = test system: HCT-116
SK-MEL-5 = test system: SK-MEL-5
A498 = test system: A498
HOP-92 = test system: HOP-92

Measured: GI50

O=C1C(Cl)C(c2ccccc2)N1n1cnc2ccccc2c1=O (stereo not drawn)
inactive: CAKI-1 37.8 µM | SN12C > 100 µM | SK-OV-3 74.6 µM | KM12 > 100 µM | ACHN > 100 µM | LOX IMVI > 100 µM | SNB-19 60.4 µM | U-251 > 100 µM | OVCAR-4 > 100 µM | NCI-H226 28.4 µM | SK-MEL-2 > 100 µM | A549 > 100 µM | SW-620 > 100 µM | HT-29 > 100 µM | HCT-116 > 100 µM | SK-MEL-5 > 100 µM

CCOC(=O)C1(C/C=C(/C)Cl)CCCC1=O (stereo not drawn)
inactive: CAKI-1 > 100 µM | SN12C > 100 µM | A498 > 100 µM | SK-OV-3 > 100 µM | KM12 > 100 µM | ACHN > 100 µM | LOX IMVI > 100 µM | SNB-19 > 100 µM | U-251 > 100 µM | OVCAR-4 > 100 µM | NCI-H226 > 100 µM | SK-MEL-2 > 100 µM | A549 > 100 µM | HT-29 > 100 µM | HCT-116 > 100 µM | SK-MEL-5 > 100 µM

COC(=O)C1Cc2c([nH]c3ccccc23)C(C2CCCCC2)N1 (stereo not drawn)
inactive: CAKI-1 > 100 µM | SN12C > 100 µM | SK-OV-3 > 100 µM | HOP-92 > 100 µM | KM12 > 100 µM | ACHN > 100 µM | LOX IMVI > 100 µM | SNB-19 > 100 µM | U-251 > 100 µM | OVCAR-4 > 100 µM | NCI-H226 > 100 µM | SK-MEL-2 > 100 µM | A549 > 100 µM | SW-620 > 100 µM | HT-29 > 100 µM | HCT-116 > 100 µM | SK-MEL-5 52.7 µM

NC(CCc1nc(-c2ccccc2)cs1)C(=O)O (stereo not drawn)
inactive: CAKI-1 > 100 µM | SN12C > 100 µM | A498 > 100 µM | SK-OV-3 > 100 µM | HOP-92 > 100 µM | KM12 > 100 µM | ACHN > 100 µM | LOX IMVI > 100 µM | SNB-19 > 100 µM | U-251 > 100 µM | NCI-H226 > 100 µM | A549 > 100 µM | SW-620 > 100 µM | HT-29 > 100 µM | HCT-116 > 100 µM | SK-MEL-5 > 100 µM

CCOc1ccc(NC(=O)CC#N)cc1
inactive: CAKI-1 > 100 µM | SN12C > 100 µM | A498 > 100 µM | SK-OV-3 > 100 µM | KM12 > 100 µM | ACHN > 100 µM | LOX IMVI > 100 µM | SNB-19 > 100 µM | U-251 > 100 µM | OVCAR-4 > 100 µM | NCI-H226 > 100 µM | SK-MEL-2 > 100 µM | A549 > 100 µM | SW-620 > 100 µM | HT-29 > 100 µM | HCT-116 > 100 µM | SK-MEL-5 > 100 µM

COc1ccc2cc3[n+](cc2c1OC)CCc1cc(O)c(O)cc1-3
inactive: CAKI-1 > 100 µM | SN12C > 100 µM | A498 > 100 µM | SK-OV-3 > 100 µM | HOP-92 > 100 µM | KM12 > 100 µM | LOX IMVI > 100 µM | SNB-19 > 100 µM | U-251 > 100 µM | OVCAR-4 > 100 µM | NCI-H226 > 100 µM | A549 > 100 µM | SW-620 > 100 µM | HT-29 > 100 µM | HCT-116 > 100 µM | SK-MEL-5 > 100 µM
